Measured values taken from patent publication US20220251134A1, “2,4,7-SUBSTITUTED-7-DEAZA-2'-DEOXY-2'-FLUOROARABINOSYL NUCLEOSIDE AND NUCLEOTIDE PRO-DRUGS AND USES THEREOF” (Southern Research Institute, priority 2019, published 2022).
Like-named read-outs stand apart in the source and are kept apart here.

What was measured:
[1] = tested on: HBV in HepG2 2.2.15 cells; assay: HepG2 2.2.15 cell-based HBV replication assay (HBV virus yield, extracellular HBV DNA by real-time PCR); set-up: species or system HBV wild-type strain ayw1; details: for EC50 / EC90: Hepatitis B virus
Method: (§1) The HepG2 2.2.15 cell line is a stable human hepatoblastoma cell line that contains two copies of the HBV wild-type strain ayw1 genome and constitutively produces high levels of HBV. Cells were sub-cultured twice a week in Dulbecco's Modified Eagle's Medium (DMEM) supplemented with 10% FBS, 380 μg/mL G418, 2.0 mM L-Glutamine, 100 units/mL Penicillin, and 100 μg/mL Streptomycin. Total cell number and percent viability determinations were performed using a hemacytometer and trypan blue dye exclusion prior to each experiment set-up.
The primary anti-HBV assay was performed as previously described (Korba and Milman (1991) Antiviral Res. 15: 217-228; Korba and Gerin (1992) Antiviral Res. 19: 55-70) with modifications to use real-time PCR (TaqMan-based) to measure extracellular HBV DNA virion-associated released from HepG2 2.2.15 cells. Antiviral compounds blocking any late step of viral replication such as transcription, translation, pre-genome encapsidation, reverse transcription, particle assembly and release can be identified and characterized using this cell line. Briefly, HepG2 2.2.15 cells were seeded in 96-well microtiter plates at 1.5×10^4 cells/well in Dulbecco's Modified Eagle's Medium supplemented with 2% FBS, 2.0 mM L-Glutamine, 100 units/mL Penicillin, and 100 μg/mL Streptomycin. […] Three days post treatment with test article (DPV), cell culture medium was replaced with fresh medium containing the appropriately diluted test compounds. Six days following the initial administration of the test compounds, the cell culture supernatant was collected, treated with pronase and then used in a real-time TaqMan-based PCR assay. The PCR-amplified HBV DNA was detected by measuring fluorescent signal resulting from the exonucleolytic degradation of a quenched fluorescent probe molecule that hybridizes to the amplified HBV DNA.

[2] = Evaluation of cell viability (MTS) in HepG2 2.2.15 cells; format: cell-based, human; details: human
Method: as §1, with “set-up. Cell viability was always greater than 95% for experiment set-ups.” for “set-up.”
(§2) At experiment conclusion, MTS reagent (CellTiter®96 Reagent, Promega) reagent was added to culture wells (96 well microtiter plates) and permitted to incubate with cells for 2-4 hours at 37° C., 5% CO2. Each cell culture well was measured for MTS reagent reduction (color change, 490/650 nm) using a SpectraMax i3 plate reader (Molecular Devices).

HSV-1 Strain HF = assay: Antiviral activity against HSV-1 Strain HF in Vero cells; format: cell-based
[3] = Cytotoxicity (TC50) in Vero cells; format: cell-based; details: African green monkey, Table 2
HepG2 2.2.15 cells = assay: Evaluation of cell viability (MTS) in HepG2 2.2.15 cells; format: cell-based, human; details: Table 3; HBV virus yield assay
Method: as §1, with “set-up. Cell viability was always greater than 95% for experiment set-ups.” for “set-up.”
as §2

[4] = HepG2 2.2.15, Table 1, HBV in HepG2 2.2.15 cells, read-out: EC50
[5] = HepG2 2.2.15, Table 3, HBV virus yield assay, read-out: EC50
[6] = Table 1, HBV in HepG2 2.2.15 cells, read-out: EC90
[7] = Table 1, HBV in HepG2 2.2.15 cells
[8] = HepG2 2.2.15, Table 3, HBV virus yield assay, read-out: EC90
[9] = HepG2 2.2.15 cells, Table 3, HBV virus yield assay

Row | SMILES | EC50 ([1]; HepG2 2.2.15) | EC90 ([1]; HepG2 2.2.15) | CC50 ([2]; Table 3, HBV virus yield assay) | EC50 [1, 5] | EC90 [1, 8] | CC50 [2, 9] | also measured
1 | CC(C)OC(=O)[C@H](C)NP(=O)(OC[C@H]1O[C@@H](n2ccc3c(N)nc(Cl)nc32)[C@@H](F)[C@@H]1O)Oc1ccccc1 (mixture of isomers) [Compound 9b, isopropyl ((((2R,3R,4S,5R)-5-(4-amino-2-chloro-7H-pyrrolo[2,3-d]pyrimidin-7-yl)-4-fluoro-3-hydroxytetrahydrofuran-2-yl)methoxy)(phenoxy)phosphoryl)-L-alaninate] | 90 nM | 1050 nM | > 10000 nM | – | – | – | –
2 | CCOC(=O)[C@H](C)NP(=O)(OC[C@H]1O[C@@H](n2ccc3c(N)nc(Cl)nc32)[C@@H](F)[C@@H]1O)Oc1ccccc1 (mixture of isomers) [Compound 9e, ethyl ((((2R,3R,4S,5R)-5-(4-amino-2-chloro-7H-pyrrolo[2,3-d]pyrimidin-7-yl)-4-fluoro-3-hydroxytetrahydro-furan-2-yl)methoxy)-(phenoxy)phosphoryl)-L-alaninate] | 140 nM | > 10000 nM | > 10000 nM | – | – | – | –
3 | C[C@H](NP(=O)(OC[C@H]1O[C@@H](n2ccc3c(N)nc(Cl)nc32)C(F)C1O)Oc1ccccc1)C(=O)OCc1ccccc1 (single isomer, unassigned) [Compound 9c] | 240 nM | > 10000 nM | > 10000 nM | – | – | – | –
4 | CC(C)COC(=O)[C@H](C)NP(=O)(OC[C@H]1O[C@@H](n2ccc3c(N)nc(Cl)nc32)[C@@H](F)[C@@H]1O)Oc1ccccc1 (single isomer, unassigned) [Compound 9d] | 300 nM | > 10000 nM | > 10000 nM | – | – | – | –
5 | COC(=O)[C@H](C)NP(=O)(OC[C@H]1O[C@@H](n2ccc3c(N)nc(Cl)nc32)[C@@H](F)[C@@H]1O)Oc1ccccc1 (single isomer, unassigned) [Compound 9f] | 240 nM | > 10000 nM | > 10000 nM | – | – | – | –
6 | Nc1nc2c(ncn2COCCO)c(=O)[nH]1 [Acyclovir, acyclovir, reference compound] | – | – | – | – | – | – | IC50 (HSV-1 Strain HF; Table 2): 11400 nM; Selectivity Index (SI50) (TC50/IC50) (HSV-1 Strain HF; Table 2): >8.77; CC50 [3]: > 100000 nM
7 | Nc1ccn([C@@H]2CS[C@H](CO)O2)c(=O)n1 [Compound 3TC, Lamivudine, reference compound] | – | – | – | 29 nM | – | – | EC50 [1, 4]: 29 nM; EC90 [1, 6]: 511 nM; CC50 ([2]; Table 1, HepG2 2.2.15 cells): > 2000 nM; CC50 (HepG2 2.2.15 cells): > 2000 nM
8 | Nc1nc(Cl)nc2c1ccn2[C@@H]1O[C@H](CO)[C@@H](O)[C@@H]1F [Compound 5, (2R,3R,4S,5R)-5-(4-amino-2-chloro-7H-pyrrolo[2,3-d]pyrimidin-7-yl)-4-fluoro-2-(hydroxymethyl)tetrahydrofuran-3-ol] | – | – | – | 60 nM | – | – | EC50 [1, 4]: 70 nM; EC90 [1, 6]: 1280 nM; Activity [1, 7]: Hi; Selectivity Index (SI50) (CC50/EC50) [1, 7]: >167; CC50 ([2]; Table 1, HepG2 2.2.15 cells): > 10000 nM; CC50 (HepG2 2.2.15 cells): > 10000 nM; IC50 (HSV-1 Strain HF; Human alphaherpesvirus 1, Table 2): 650 nM; Selectivity Index (SI50) (TC50/IC50) (HSV-1 Strain HF; Table 2): >15.4; CC50 [3]: > 10000 nM
9 | CCC(CC)COC(=O)[C@H](C)NP(=O)(OC[C@H]1O[C@@H](n2ccc3c(N)nc(Cl)nc32)[C@@H](F)[C@@H]1O)Oc1ccccc1 (stereo partly drawn) [Compound 9a, 2-ethylbutyl ((((2R,3R,4S,5R)-5-(4-amino-2-chloro-7H-pyrrolo[2,3-d]pyrimidin-7-yl)-4-fluoro-3-hydroxytetrahydrofuran-2-yl)methoxy)(phenoxy)phosphoryl)-L-alaninate] | 160 nM | 1580 nM | > 10000 nM | – | – | – | –
10 | CCCCCCCCCCCC(=O)Nc1nc(Cl)nc2c1ccn2[C@@H]1O[C@H](CO)[C@@H](O)[C@@H]1F [Compound 12a, N-(2-chloro-7-((2R,3S,4R,5R)-3-fluoro-4-hydroxy-5-(hydroxymethyl)tetrahydrofuran-2-yl)-7H-pyrrolo[2,3-d]pyrimidin-4-yl)dodecanamide] | – | – | – | 80 nM | 950 nM | > 10000 nM | –
11 | CCCCCCCC/C=C\CCCCCCCC(=O)Nc1nc(Cl)nc2c1ccn2[C@@H]1O[C@H](CO)[C@@H](O)[C@@H]1F [Compound 12b, N-(2-chloro-7-((2R,3S,4R,5R)-3-fluoro-4-hydroxy-5-(hydroxymethyl)tetrahydrofuran-2-yl)-7H-pyrrolo[2,3-d]-pyrimidin-4-yl)oleamide] | – | – | – | 130 nM | > 10000 nM | > 10000 nM | –
12 | CCCCCCCCCCCCCCCCCC(=O)Nc1nc(Cl)nc2c1ccn2[C@@H]1O[C@H](CO)[C@@H](O)[C@@H]1F [Compound 12c, N-(2-chloro-7-((2R,3S,4R,5R)-3-fluoro-4-hydroxy-5-(hydroxymethyl)tetrahydrofuran-2-yl)-7H-pyrrolo[2,3-d]pyrimidin-4-yl)stearamide] | – | – | – | 530 nM | > 10000 nM | > 10000 nM | –
13 | CCCC(CCC)C(=O)Nc1nc(Cl)nc2c1ccn2[C@@H]1O[C@H](CO)[C@@H](O)[C@@H]1F [Compound 12d, N-(2-chloro-7-((2R,3S,4R,5R)-3-fluoro-4-hydroxy-5-(hydroxymethyl)tetrahydrofuran-2-yl)-7H-pyrrolo[2,3-d]pyrimidin-4-yl)-2-propylpentanamide] | – | – | – | 2120 nM | > 10000 nM | > 10000 nM | –
